Our source for the melting point and inhibition values is US9315496B2, “Benzopyrone derivative and use thereof” (HUAZHONG UNIVERSITY OF SCIENCE & TECHNOLOGY, priority 2011, dated 2016).

Counter-ions that a name gives are not always drawn. Like-named read-outs stand apart in the source and are kept apart here.

The target in one data set is dopamine D2 receptor (Rattus norvegicus, UniProt P61169). As to the kind of experiment: D2 receptor binding assay (3H-Spiperone, rat brain striatum membrane). The note with it: read-out: D2 inhibition %.
The next data set addresses 5-HT2A receptor (Rattus norvegicus, UniProt P14842). As to the kind of experiment: 5HT2A receptor binding assay ([3H]-Ketanserin, rat brain striatum membrane). The note with it: read-out: 5HT2A inhibition %.
A further data set addresses T1, 5-HT1A receptor (Rattus norvegicus, UniProt P19327).
T1 sequence (P19327 1-422): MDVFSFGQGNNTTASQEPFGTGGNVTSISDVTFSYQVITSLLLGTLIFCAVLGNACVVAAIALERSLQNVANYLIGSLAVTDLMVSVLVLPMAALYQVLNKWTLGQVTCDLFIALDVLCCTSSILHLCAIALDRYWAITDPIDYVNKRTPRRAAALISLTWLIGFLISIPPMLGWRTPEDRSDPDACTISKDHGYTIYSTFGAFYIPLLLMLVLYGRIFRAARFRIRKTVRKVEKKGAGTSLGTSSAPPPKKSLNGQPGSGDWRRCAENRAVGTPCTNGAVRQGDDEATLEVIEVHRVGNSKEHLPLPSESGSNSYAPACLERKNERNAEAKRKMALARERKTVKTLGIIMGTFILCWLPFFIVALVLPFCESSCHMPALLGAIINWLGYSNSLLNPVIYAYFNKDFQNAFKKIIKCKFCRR
As to the kind of experiment: 5HT1A receptor binding assay (3H-8-OH-DPAT, rat brain striatum membrane). As to conditions: test compound final concentration 10^−5 M; 3H-8-OH-DPAT; rat brain striatum membrane. As for the experimental part:
Incubation at 37° C. was conducted for 10 min, the weight of the tubes were adjusted using a balance after incubation. […] Centrifugation was conducted and repeated 3 times.

Where [1] appears, read: test compound final concentration 10^−5 M, [3H]-Ketanserin, rat brain striatum membrane.

Chain of dopamine D2 receptor (P61169 whole entry): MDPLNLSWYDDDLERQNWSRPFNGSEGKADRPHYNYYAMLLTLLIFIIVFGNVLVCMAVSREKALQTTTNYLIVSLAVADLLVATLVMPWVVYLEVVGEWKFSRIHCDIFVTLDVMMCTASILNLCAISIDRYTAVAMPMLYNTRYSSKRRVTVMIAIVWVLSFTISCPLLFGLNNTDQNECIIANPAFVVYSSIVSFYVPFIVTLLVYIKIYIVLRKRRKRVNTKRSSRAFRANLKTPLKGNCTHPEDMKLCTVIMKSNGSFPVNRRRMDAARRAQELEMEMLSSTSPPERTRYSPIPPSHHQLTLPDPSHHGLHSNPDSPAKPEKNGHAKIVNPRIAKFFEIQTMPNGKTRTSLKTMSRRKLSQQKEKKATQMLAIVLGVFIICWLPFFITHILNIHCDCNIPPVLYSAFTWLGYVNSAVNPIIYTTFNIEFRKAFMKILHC
Chain of 5-HT2A receptor (P14842 whole entry): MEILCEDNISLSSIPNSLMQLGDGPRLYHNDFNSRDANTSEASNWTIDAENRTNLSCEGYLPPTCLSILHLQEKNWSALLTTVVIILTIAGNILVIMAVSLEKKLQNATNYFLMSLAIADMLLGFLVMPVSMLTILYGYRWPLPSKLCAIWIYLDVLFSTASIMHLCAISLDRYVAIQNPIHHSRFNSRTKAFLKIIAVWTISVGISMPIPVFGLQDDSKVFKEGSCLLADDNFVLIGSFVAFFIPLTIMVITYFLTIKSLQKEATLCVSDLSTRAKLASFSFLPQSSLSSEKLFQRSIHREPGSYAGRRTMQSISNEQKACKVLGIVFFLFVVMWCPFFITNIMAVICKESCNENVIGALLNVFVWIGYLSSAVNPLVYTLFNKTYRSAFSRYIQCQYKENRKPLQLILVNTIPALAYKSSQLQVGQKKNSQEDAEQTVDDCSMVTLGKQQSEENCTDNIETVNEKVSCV
Procedure for dopamine D2 receptor: Rats were sacrificed by cervical dislocation on ice. Brain striatum was rapidly taken, and 2 brain striatums were combined into a centrifuge tube, to which 3 ml of buffer (0.05 M Tris-HCl buffer, containing NaCl 120 mM, KCl 5 mM, MgCl2 1 mM, CaCl2 1 mM) was added, homogenization was conducted for 3-4 s at level 4 for four times, and then 5 ml of buffer was then added. The weight of the homogenized tubes were adjusted using a balance, and centrifugation was conducted at 12000 r, 4° C. for 20 min. The supernatant was discarded, and 3 ml of buffer was added (0.05 M Tris-HCl buffer, containing NaCl 120 mM, KCl 5 mM, MgCl2 1 mM, CaCl2 1 mM). Vortex mixer was used for blending, and then 5 ml of buffer was added (0.05 M Tris-HCl buffer, containing NaCl 120 mM, KCl 5 mM, MgCl2 1 mM, CaCl2 1 mM). Centrifugation was conducted (repeated 3 times). After the centrifugations, the supernatant was discarded, and the pellets were stored at −80° C. for future use.
Beckman LS-6500 Multi-function Liquid Scintillation Counter was used.
(1) The prepared membrane was first applied with appropriate amount of homogenized liquid, and homogenizer was used for evenly dispersing. 15 tubes were mixed into a 100 ml container, and appropriate amount of homogenized liquid was added to give 50 ml of membrane suspension, which was reserved for future use.
(2) 100 μL of membrane preparation and 100 μL of buffer were added into each reaction tube.
(3) 100 μL of homogenized liquid was added into the total binding tube (TB), 100 μL of Butaclamol (final concentration 10^−5 M) was added into the non-specific binding tube (NB), and 100 μL of the test compound (final concentration 10^−5 M) was added into the specific binding tube (SB) for each compound.
(5) Each of the reaction tubes was incubated at 37° C. for 20 min. After the reaction was completed, the bound ligands were rapidly filtered under reduced pressure, and the ice-chilled assay buffer was used for adequate washing. The filter was taken out and put into a 3 ml scintillation vial, and 2 ml of toluene scintillation solution was added and blended.
(6) The scintillation vials were put into Liquid Scintillation Counter for counting. Inhibitory rate(1%)=(Total binding tube cpm−compound cpm)/(Total binding tube cpm−non-specific binding tube cpm)×100%
Each assay for the compounds was conducted in duplicate.

Usually melting point stands for the temperature, or range, at which the solid turns liquid. Consider `O=c1ccc2ccc(OCCCCN3CCN(c4nsc5ccccc45)CC3)cc2o1` (as salt: hydrochloride) [Compound 2, 7-(4-(4-(3-(1,2-benzisothiazole)-1-piperazinyl)-n-butoxy))-2H-benzopyran-2-one], for which the melting point lay in the range of 103 to 105 °C.
Still for that read-out and setting: the value for `O=c1cc(-c2ccccc2)c2ccc(OCCCN3CCN(c4nsc5ccccc45)CC3)cc2o1` (as salt: hydrochloride) [Compound 12, 7-(3-(4-(3-(1,2-benzisothiazole)-1-piperazinyl)-n-propoxy))-4-phenyl-2H-benzopyran-2-one] was 96 to 98 °C.
The same measure, in the same setting: the value for `O=c1cc(C(F)(F)F)c2ccc(OCCCN3CCN(c4nsc5ccccc45)CC3)cc2o1` (as salt: hydrochloride) [Compound 16, 7-(3-(4-(3-(1,2-benzisothiazole)-1-piperazinyl)-n-propoxy))-4-(trifluoromethyl)-2H-benzopyran-2-one] was 103 to 105 °C.
The term inhibition denotes the drop in the measured response relative to a control, in per cent. As for `O=c1ccc2ccc(OCCCCN3CCN(c4nsc5ccccc45)CC3)cc2o1` [Compound 2, 7-(4-(4-(3-(1,2-benzisothiazole)-1-piperazinyl)-n-butoxy))-2H-benzopyran-2-one], the inhibition at 10 µM on dopamine D2 receptor was found to be 80.6%; at 5-HT2A receptor (setting [1]), 103%; at 5-HT1A receptor it was 99.4%.
As to `O=c1ccc2ccc(OCCCN3CCC(c4noc5cc(F)ccc45)CC3)cc2o1` [Compound 3, 7-(3-(4-(3-(6-fluoro-benzisoxazole)-1-piperidyl)-n-propoxy))-2H-benzopyran-2-one], the melting point fell in the range of 128 to 130 °C. For the same compound, the inhibition at 10 µM at dopamine D2 receptor came out at 106%. For the same compound, the inhibition at 10 µM on 5-HT2A receptor (setting [1]) is 101%. In addition, the inhibition at 10 µM on 5-HT1A receptor is 42.3%.
The like results for `O=c1ccc2ccc(OCCCN3CCN(c4nsc5ccccc45)CC3)cc2o1` [Compound 4, 7-(3-(4-(3-(1,2-benzisothiazole)-1-piperazinyl)-n-propoxy))-2H-benzopyran-2-one] were, in that order, 91 to 93 °C, 49.2%, 59.1% and 101%.
The like results for `Cc1cc(=O)oc2cc(OCCCCN3CCN(c4nsc5ccccc45)CC3)ccc12` [Compound 5, 7-(4-(4-(3-(1,2-benzisothiazole)-1-piperazinyl)-n-butoxy))-4-methyl-2H-benzopyran-2-one] were, in that order, 110 to 112 °C, 88.5%, 104% and 114%.
For `Cc1cc(=O)oc2cc(OCCCN3CCN(c4nsc5ccccc45)CC3)ccc12` [Compound 8, 7-(3-(4-(3-(1,2-benzisothiazole)-1-piperazinyl)-n-propoxy))-4-methyl-2H-benzopyran-2-one], in that order: 113 to 115 °C, 73.8%, 88.6% and 98.5%.
`Cc1cc(=O)oc2cc(OCCCCCN3CCC(c4noc5cc(F)ccc45)CC3)ccc12` [Compound 9, 7-(5-(4-(3-(6-fluoro-benzisoxazole)-1-piperidyl)-n-pentyloxy))-4-methyl-2H-benzopyran-2-one] showed a melting point of 119 to 121 °C. Moreover, at dopamine D2 receptor, the inhibition at 10 µM is 102%. Also, the inhibition at 10 µM on 5-HT2A receptor (setting [1]) amounted to 120%. For the same compound, the inhibition at 10 µM at 5-HT1A receptor stood at 88.8%.
For `Cc1cc(=O)oc2cc(OC/C=C/CN3CCC(c4noc5cc(F)ccc45)CC3)ccc12` [Compound 10, (E)-7-(4-(4-(3-(6-fluoro-benzisoxazole)-3-piperidyl)-but-2-enyloxy))-4-methyl-2H-benzopyran-2-one], in that order: 129 to 130 °C, 111%, 109% and 102%.
For `O=c1cc(-c2ccccc2)c2ccc(OCCCN3CCC(c4noc5cc(F)ccc45)CC3)cc2o1` [Compound 11, 7-(3-(4-(3-(6-fluoro-benzisoxazole)-1-piperidyl)-n-propoxy))-4-phenyl-2H-benzopyran-2-one], in that order: 185 to 187 °C, 18.5%, 57.8% and 35.3%.
Turning to `O=c1cc(-c2ccccc2)c2ccc(OCCCCN3CCC(c4noc5cc(F)ccc45)CC3)cc2o1` [Compound 13, 7-(4-(4-(3-(6-fluoro-benzisoxazole)-1-piperidyl)-n-butoxy))-4-phenyl-2H-benzopyran-2-one], the values for the inhibition at 10 µM at dopamine D2 receptor, on 5-HT2A receptor and on 5-HT1A receptor were 65.2%, 67.2% and 111%, respectively.
For the compound `O=c1cc(-c2ccccc2)c2ccc(OCCCCN3CCN(c4nsc5ccccc45)CC3)cc2o1` [Compound 14, 7-(4-(4-(3-(1,2-benzisothiazole)-1-piperazinyl)-n-butoxy))-4-phenyl-2H-benzopyran-2-one], the melting point was in the range of 116 to 118 °C. Besides, the inhibition at 10 µM at dopamine D2 receptor was 68.6%. Also, on 5-HT2A receptor (setting [1]), the inhibition at 10 µM was found to be 83.4%. The inhibition at 10 µM at 5-HT1A receptor came out at 95.5%.
`O=c1cc(C(F)(F)F)c2ccc(OCCCN3CCC(c4noc5cc(F)ccc45)CC3)cc2o1` [Compound 15, 7-(3-(4-(3-(6-fluoro-benzisoxazole)-1-piperidyl)-n-propoxy))-4-(trifluoromethyl)-2H-benzopyran-2-one] yielded a melting point of 146 to 148 °C. Also, on dopamine D2 receptor, the inhibition at 10 µM came to 94.6%. In addition, the inhibition at 10 µM at 5-HT2A receptor (setting [1]) is 83.3%. At 5-HT1A receptor, the inhibition at 10 µM was found to be 107%.
Regarding `O=c1cc(C(F)(F)F)c2ccc(OCCCN3CCN(c4nsc5ccccc45)CC3)cc2o1` [Compound 16, 7-(3-(4-(3-(1,2-benzisothiazole)-1-piperazinyl)-n-propoxy))-4-(trifluoromethyl)-2H-benzopyran-2-one], the values for the inhibition at 10 µM on dopamine D2 receptor, on 5-HT2A receptor (setting [1]) and on 5-HT1A receptor were 115%, 96.3% and 104%, respectively.
Regarding `O=c1cc(C(F)(F)F)c2ccc(OCCCCN3CCC(c4noc5cc(F)ccc45)CC3)cc2o1` [Compound 17, 7-(4-(4-(3-(6-fluoro-benzisoxazole)-1-piperidyl)-n-butoxy))-4-(trifluoromethyl)-2H-benzopyran-2-one], the melting point is 125 to 127 °C. Besides, the inhibition at 10 µM at dopamine D2 receptor worked out at 92.3%. For the same compound, the inhibition at 10 µM at 5-HT2A receptor (setting [1]) was found to be 95.9%. Further, the inhibition at 10 µM at 5-HT1A receptor came out at 101%.
The like results for `Cc1cc(=O)oc2c(Cl)c(OCCCCN3CCN(c4nsc5ccccc45)CC3)ccc12` [Compound 20, 7-(4-(4-(3-(1,2-benzisothiazole)-1-piperazinyl)-n-butoxy))-4-methyl-8-chloro-2H-benzopyran-2-one] were, in that order, 133 to 135 °C, 9.7%, 15.5% and 92.8%.
The like results for `Cc1cc(=O)oc2c(Cl)c(OCCCN3CCC(c4noc5cc(F)ccc45)CC3)ccc12` [Compound 21, 7-(3-(4-(3-(6-fluoro-benzisoxazole)-1-piperidyl)-n-propoxy))-4-methyl-8-chloro-2H-benzopyran-2-one] were, in that order, 185 to 187 °C, 32.9%, 90.1% and 101%.
For `Cc1cc(=O)oc2c(C)c(OCCCCN3CCN(c4nsc5ccccc45)CC3)ccc12` [Compound 24, 7-(4-(4-(3-(1,2-benzisothiazole)-1-piperazinyl)-n-butoxy))-4-8-dimethyl-2H-benzopyran-2-one], in that order: 106 to 108 °C, 98.1%, 97.4% and 105%.
Compound `CCCc1cc(=O)oc2cc(OCCCCN3CCC(c4noc5cc(F)ccc45)CC3)ccc12` [Compound 25, 7-(4-(4-(3-(6-fluoro-benzisoxazole)-1-piperidyl)-n-butoxy))-4-n-propyl-2H-benzopyran-2-one] registered a melting point of 139 to 141 °C. At dopamine D2 receptor, the inhibition at 10 µM amounted to 70.7%. For the same compound, the inhibition at 10 µM at 5-HT2A receptor (setting [1]) stood at 40.2%. The inhibition at 10 µM on 5-HT1A receptor was 84.5%.
For `CCCc1cc(=O)oc2cc(OCCCCN3CCN(c4nsc5ccccc45)CC3)ccc12` [Compound 26, 7-(4-(4-(3-(1,2-benzisothiazole)-1-piperazinyl)-n-butoxy))-4-n-propyl-2H-benzopyran-2-one], the inhibition at 10 µM was 61.9% on dopamine D2 receptor, 129% on 5-HT2A receptor (setting [1]) and 99.7% on 5-HT1A receptor.
For `CCc1cc(=O)oc2cc(OCCCCN3CCC(c4noc5cc(F)ccc45)CC3)ccc12` [Compound 27, 7-(4-(4-(3-(6-fluoro-benzisoxazole)-1-piperidyl)-n-butoxy))-4-ethyl-2H-benzopyran-2-one], in that order: 84%, 124% and 65.7%.
The like results for `O=C1CC(c2ccccc2)c2ccc(OCCCCN3CCC(c4noc5cc(F)ccc45)CC3)cc2O1` (centres unmarked) [Compound 34] were, in that order, 120%, 115% and 5.9%.
